Several values for one entry are separate records, joined by “and”; a condition that tells them apart may be missing. Identical values can stand only once. Like-named read-outs stand apart in the source and are kept apart here.
What was measured:
[1] = system: Plasmodium falciparum strain 3D7; assay: Antimalarial activity, whole-cell SYBR Green I assay; type: cell-based; conditions: read-out: Antimalarial activity (IC50) Mean
Procedure: Antimalarial activity of compounds IIa and IIb can be accessed by exposing a P. falciparum strain (see Example 5), such as strain 3D7, which is chloroquine and mefloquine sensitive, to said compounds, and by using the SYBR Green I assay as described in Machado et. al, Ann. Clin. Med. Microbio. 2016, 2, 1010. Asynchronous parasites are cultivated for 72 hours in the presence of each compound. Fluorescence intensity was measured with a multi-mode microplate reader (Triad, Dynex Technologies). Compounds IIa and IIb were active against the malaria parasite (see Example 5, Table 1). Compounds were dissolved in RPMI-1640 with L-glutamine (BiowestTM) supplemented with […] (GibcoTM), herein after referred to as RPMIc, to obtain an intermediate solution of 100 μM. Laboratory-adapted P. falciparum strain 3D7, a chloroquine and mefloquine sensitive strain, was continuously cultured as described elsewhere (Machado et. al, Ann. Clin. Med. Microbio. 2016, 2, 1010). Parasites were cultivated in 5% haematocrit, 37° C. and atmosphere with 5% of CO2. […] (GibcoTM) at 0.5% was used as a substitute of human serum in the culture medium. Staging and parasitemia were determined by light microscopy of Giemsa-stained thin blood smears. Anti-malarial activity was determined using the SYBR Green I assay (Machado et. al, Ann. Clin. Med. Microbio. 2016, 2, 1010 and Lobo et. al, […]. 2018, 17, 1). Briefly, asynchronous parasites were cultivated for 72 hours in the presence of a 1:3 serial dilution of each compound.

[2] = system: PC3 human prostate adenocarcinoma; assay: Antitumoral effect, MTS metabolism assay, PC3; type: cell-based; conditions: 72 hours
U251 human glioblastoma = assay: Antitumoral effect, MTS metabolism assay, U251; type: cell-based; conditions: U-251, 72 hours
[3] = system: AML12 murine immortalized hepatocyte cell line; assay: Toxicity for non-tumoral cells, MTS assay, AML12; type: cell-based; conditions: for IC50: Mus musculus, non-tumorigenic cell line, 72 hours, MTS; for Selectivity (IC50Compound II/IC50 Doxorubicin): ratio to doxorubicin
[4] = system: HCT116 human colorectal carcinoma; assay: Antitumoral effect, MTS metabolism assay, HCT116; type: cell-based; conditions: HCT-116, 72 hours
[5] = system: MCF7 human breast adenocarcinoma; assay: Antitumoral effect, MTS metabolism assay, MCF7; type: cell-based; conditions: 72 hours
HT-29 cells = conditions: 2 mg/kg intravenous, eight injections
[6] = Fluorescence quantum yields determination; type: physicochemical; conditions: water with 30% DMSO; standard fluorescein in 0.1 M sodium hydroxide
[7] = chloroquine-sensitive 3D7 strain, asynchronous parasites, 72 hours

Row | IC50 [1, 7] | IC50 [2] | IC50 (U251 human glioblastoma) | IC50 [4] | IC50 [5] | fluorescence quantum yield [6] | SMILES | IC50 ([1]; 3D7, 72 h) | IC50 [3] | Selectivity (IC50Compound II/IC50 Doxorubicin) [3] | reduction of the tumour mass versus negative control and vehicle control (HT-29 cells)
1 |  |  |  |  |  |  | CCN(CC)CCCC(C)Nc1ccnc2cc(Cl)ccc12 (stereo not shown) [CQ, chloroquine, reference compound] | 19.4 nM |  |  | 
2 | 32.8 nM |  |  |  |  |  | COc1cc(NC(C)CCCNC(=O)OC2CCCC3(C2)OOC2(OO3)C3CC4CC(C3)CC2C4)c2ncccc2c1 (stereo not shown) [Compound IIa] |  |  |  | 
3 | 11.4 nM |  |  |  |  |  | CC(C)(C)OC(=O)N1CCN(C(=O)OC2CCCC3(C2)OOC2(OO3)C3CC4CC(C3)CC2C4)CC1 (stereo not shown) [Compound IIb] |  |  |  | 
4 |  | 14300 nM | 13200 nM | 3520 nM | 8450 nM |  | COc1cccc2c1C(=O)c1c(O)c3c(c(O)c1C2=O)C[C@](O)(C(=O)CO)C[C@H]3O[C@@H]1CC(NC(=O)OCC2=CCCCC23OOC2(OO3)C3CC4CC2CC(O)(C4)C3)[C@@H](O)[C@@H](C)O1 (stereo partly shown) [Compound IIe] |  | 30500 nM | 180 and 179 | 
5 |  | 120 nM | 11 nM | 50 nM | 170 nM | 2.8% | COc1cccc2c1C(=O)c1c(O)c3c(c(O)c1C2=O)C[C@@](O)(C(=O)CO)C[C@@H]3O[C@H]1C[C@H](N)[C@H](O)[C@H](C)O1 [Doxorubicin, doxorubicin, reference compound] |  | 170 nM |  | higher reduction of the tumour mass
6 |  | 1370 nM | 250 nM | 5110 nM | 1650 nM |  | COc1cccc2c1C(=O)c1c(O)c3c(c(O)c1C2=O)C[C@](O)(C(=O)CO)C[C@H]3O[C@@H]1CC(NC(=O)OC2CCCC3(C2)OOC2(OO3)C3CC4CC(C3)CC2C4)[C@@H](O)[C@@H](C)O1 (stereo partly shown) [IIc] |  | 1830 nM | 10 and 10.64 | 

From patent US20250064840A1, “DRUG DELIVERY SYSTEMS BASED ON ENDOPEROXIDES USEFUL IN DIAGNOSIS AND THERAPY, AND METHODS THEREOF” (FACULDADE DE FARMÁCIA DA UNIVERSIDADE DE LISBOA, priority 2021, published 2025)
